# In publication PMC10747034 (Tropical Medicine and Infectious Disease, 2023):
# Experiments:
# [1] = tested on: Toxoplasma gondii tachyzoites of RH strain; assay: Plaque assay (7 days) in NHDF monolayers infected with T. gondii; assay type: cell-based; conditions: 7 days of treatment, two independent experiments
# Experimental: After NHDF reached confluency, each well was replaced with fresh medium containing one compound at a concentration of 1 µM, and then infected with 1000 newly egressed tachyzoites from RH strain [29]. Screening at 1 μM is recommended by MMV. As a control, infected cells were incubated with complete medium and 0.01% DMSO [29]. The plates were then kept in an incubator at 37 °C in a humid atmosphere with 5% CO2 for seven days. After this time, cultures were fixed with 70% ethanol and stained with crystal violet to observe the plates.
# For that, 12-well plates containing a monolayer of NHDF were infected with 600 tachyzoites of the RH strain of T. gondii and treated with different concentrations for seven days. IC50s of compounds were calculated using GraphPad Prism 8.0 software.
# Data were analyzed using GraphPad Prim 8.0 software. IC50 and CC50 calculations were performed by fitting the values of proliferation/viability in percentage to a non-linear curve followed by dose–response inhibition analysis through log(inhibitor) vs. normalized response.
# T. gondii tachyzoites = assay: Ultrastructural analysis through transmission electron microscopy; assay type: cell-based, Toxoplasma gondii; conditions: 1 µM, 48 h
# Experimental: T-25 cm^2 flasks for cell culture with confluent monolayers of NHDF were infected with freshly egressed tachyzoite in a ratio of 10:1 parasite per cell for 2 h of interaction. The flasks were washed and fresh RPMI was added for another two hours. After this, the compounds were added and infected cells were treated for 48 h. The sample fixation and processing for microscopy were performed as previously described.
# [2] = tested on: Toxoplasma gondii tachyzoites of RH strain; assay: Forty-eight-hour antiproliferative assay; assay type: cell-based; conditions: 1 µM, 48 h
# Experimental: NDHF cell monolayers were plated in a 24-well tissue plate containing coverslips, and after confluency was reached, cells were infected with a ratio of 5:1 parasite/host cells with freshly egressed RH strain tachyzoites for two hours. Then, cells were washed twice with phosphate-buffered saline, pH 7.4 (PBS), to remove non-invaded parasites and incubated with a complete medium for two hours more. After this time, infected cells were treated for 48 h with different concentrations of selected compounds, based on the IC50 obtained through plaque assay. At the end of the experiment, the cells were washed with PBS, stained with Bouin for 10 min, washed with 70% alcohol, and stained with solutions 2 and 3 of the Fast Panoptic kit for 60 and 10 s, respectively. Two hundred infected cells were quantified per slide using the 100× objective of a Leica DM500 optical microscope, stratifying the number of infected and non-infected cells and the amount of tachyzoite in each infected cell. The proliferation index is the ratio of the product of the total amount of tachyzoites and the percentage of infected cells by the total number of cells.
# NHDF cells = assay: Cytotoxicity assay (MTS, 7 days); assay type: cell-based, Human; conditions: MTS, ND = 100% viability up to 10 µM, read-out: Cytotoxicity against NHDF (7 Days) CC50
# Experimental: For that, 96-well tissue plates containing NHDF cells were treated with different concentrations of compounds up to 10 µM for seven days. Control cells were incubated with 0.5% DMSO. At the end of the treatment, cell viability was then analyzed through the colorimetric method of MTS (Promega, Madison, WI, USA). […] Data were analyzed using GraphPad Prim 8.0 software. IC50 and CC50 calculations were performed by fitting the values of proliferation/viability in percentage to a non-linear curve followed by dose–response inhibition analysis through log(inhibitor) vs. normalized response.
# Madurella mycetomatis = tested on: Madurella mycetomatis; set-up: method as in PMID 35120131; conditions: read-out: IC50 against Madurella mycetomatis; cited from earlier work
smiles,measurement,setting,value
Clc1cc(Cl)c2c(c1)CCc1ccccc1C2n1ccnc1 (centres unmarked) [Eberconazole],IC50,[1],724 ± 12.6 nM
same,Ultrastructural alterations on tachyzoites (TEM),T. gondii tachyzoites,induced mitochondrial swelling (white arrowhead) and extensive vacuolization
same,Inhibition of parasite proliferation,[2],more than 60%
same,CC50,NHDF cells,> 10000 nM
same,IC50,Madurella mycetomatis,720 nM
